Reference: patent US20110081316A1, “PYRAZOLE INHIBITORS OF PHOSPHATIDYLINOSITOL 3-KINASE” (VERTEX PHARMACEUTICALS INCORPORATED, priority 2009, published 2011)

target: PI3K-gamma (Homo sapiens, UniProt P48736); assay: PI3K Inhibition Assay (33P-ATP, PI(4,5)P2 substrate, filter plate scintillation counting); format: biochemical; details: 2 nM enzyme, 3 μM ATP, 30 μM PI(4,5)P2, 30 min at 25° C.; competitive tight binding Ki fit
Description: Using a Biomek FX from Beckman Coulter, 1.5 μL of each of ten 2.5-fold serial dilutions of a compound of the invention in 100% DMSO was added to an individual well (hereafter, “test well”) in a 96 well polystyrene plate [Corning, Costar Item No. 3697]. One test well also contained 1.5 μL of DMSO with no compound. […] Using a Titertek Multidrop, 50 μL of Reaction Mix [100 mM HEPES pH 7.5, 50 mM NaCl, 10 mM DTT, 0.2 mg/mL BSA, 60 μM phosphatidylinositol(4,5)bisphosphate diC16 (PI(4,5)P2; Avanti Polar Lipids, Cat. No. 840046P) and PI3K isoform of interest (see Table 3 for isoform concentrations)] was added to each well. To initiate the reaction, 50 μL of ATP Mix [20 mM MgCl2, 6 μM ATP (100 μCi/μmmole ^33P-ATP)] was added each well, followed by incubating the wells for 30 min. at 25° C. Final concentrations in each well were 50 mM HEPES 7.5, 10 mM MgCl2, 25 mM NaCl, 5 mM DTT, 0.1 mg/mL BSA, 30 μM PI(4,5)P2, 3 μM ATP, and the PI3K isoform of interest (see Table 3). Final compound concentrations in each well ranged from 10 μM to 1 nM. [table] After incubation, the reactions in each well were quenched by addition of 50 μL of stop solution [30% TCA/Water, 10 mM ATP]. Each quenched reaction mixture was then transferred to a 96 well glass fiber filter plate [Corning, Costar Item No. 3511]. The plate was vacuum-filtered and washed three times with 150 μL of 5% TCA/water in a modified Bio-Tek Instruments ELX-405 Auto Plate Washer. 50 μL of scintillation fluid was added to each well and the plate read on a Perkin-Elmer TopCount™ NXT liquid scintillation counter to obtain ^33P-counts representing inhibition values. The value for the background well was subtracted from the value obtained for each test well and the data were fit to the competitive tight binding Ki equation described by Morrison and Stone, Comments Mol. Cell. Biophys. 2: 347-368, 1985.

Sequence of PI3K-gamma (P48736 whole entry, species assumed, canonical isoform): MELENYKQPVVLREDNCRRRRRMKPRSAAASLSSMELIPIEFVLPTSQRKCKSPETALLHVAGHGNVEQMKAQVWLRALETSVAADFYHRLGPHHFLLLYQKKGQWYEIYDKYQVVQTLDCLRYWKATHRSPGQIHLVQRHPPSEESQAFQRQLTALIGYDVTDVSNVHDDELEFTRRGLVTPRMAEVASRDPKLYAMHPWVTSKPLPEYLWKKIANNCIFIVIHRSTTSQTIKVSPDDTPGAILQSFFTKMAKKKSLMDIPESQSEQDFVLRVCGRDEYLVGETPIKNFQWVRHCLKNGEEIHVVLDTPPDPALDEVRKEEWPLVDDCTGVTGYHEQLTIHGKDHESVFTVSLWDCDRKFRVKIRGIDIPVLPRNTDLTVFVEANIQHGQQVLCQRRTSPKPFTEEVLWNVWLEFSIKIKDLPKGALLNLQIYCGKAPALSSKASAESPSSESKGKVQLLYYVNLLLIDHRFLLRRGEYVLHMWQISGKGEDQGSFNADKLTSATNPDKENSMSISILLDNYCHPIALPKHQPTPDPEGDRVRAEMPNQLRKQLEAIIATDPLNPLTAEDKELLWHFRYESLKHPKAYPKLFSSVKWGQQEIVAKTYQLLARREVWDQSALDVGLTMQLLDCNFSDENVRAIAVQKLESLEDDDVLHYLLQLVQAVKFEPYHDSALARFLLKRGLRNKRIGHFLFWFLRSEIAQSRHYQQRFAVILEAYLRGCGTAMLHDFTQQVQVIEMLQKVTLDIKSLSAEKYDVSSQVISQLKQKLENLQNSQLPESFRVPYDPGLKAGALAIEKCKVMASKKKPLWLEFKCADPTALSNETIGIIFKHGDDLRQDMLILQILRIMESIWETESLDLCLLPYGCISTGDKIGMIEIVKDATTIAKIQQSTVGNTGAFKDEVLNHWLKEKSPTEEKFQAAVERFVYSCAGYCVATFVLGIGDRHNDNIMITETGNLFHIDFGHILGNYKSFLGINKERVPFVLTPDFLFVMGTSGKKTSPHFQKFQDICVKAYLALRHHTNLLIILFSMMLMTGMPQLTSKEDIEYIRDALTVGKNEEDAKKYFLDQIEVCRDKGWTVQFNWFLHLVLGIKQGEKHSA

Ki, < 100 nM:
Cn1nc(NC(=O)NCCc2cn(CC(F)F)cn2)cc1C#Cc1cccnc1 [Compound 3]
COc1cncc(C#Cc2cc(NC(=O)NCCOCC3CC3)nn2C)c1 [Compound 6]
Cn1nc(NC(=O)NCCOCC2CC2)cc1C#Cc1ccc(N)nc1 [Compound 7]
Cn1nc(NC(=O)NCCOCC2CC2)cc1C#Cc1cccnc1Cl [Compound 8]
Cn1nc(NC(=O)NCCOCC2CC2)cc1C#Cc1ccc2nccnc2c1 [Compound 9]
COc1cc(C#Cc2cc(NC(=O)NC[C@@H](C)OCC3CC3)nn2C)cnc1OC [Compound 11]
C[C@@H](CNC(=O)Nc1cc(C#Cc2ccc3nccnc3c2)n(C)n1)OCC1CC1 [Compound 12]
COc1cc(C#Cc2cc(NC(=O)NC[C@H](C)OCC3CC3)nn2C)cnc1OC [Compound 14]
